Format in all cases: in vivo, mouse
Test [1] deals with TGF-β1 canonical signaling pathway (p-Smad 2). Description: pSmad-2 indirect immunofluorescence in tibialis anterior cryosections of mdx mice. The settings on record: exercised mdx mice, 1 mg/kg i.p. 3 times per week for 3 months. How it is done: (§1) FIG. 2. Andrographolide reduced expression and activity of the pro-fibrotic cytokine, TGF-β1, in mdx mice. To augment the extent of muscle fibrosis, 3 months old mdx mice were subjected to an exercise protocol for 3 months. Along this period one group was treated with 1 mg/kg andrographolide or vehicle (i.p. injections 3 time per week, 4 animal per group). A) TGF-β1 mRNA levels, an important pro-fibrotic cytokine, were determined in tibialis anterior muscle from Wild type (WT), Vehicle-Treated mdx and andrographolide-treated mdx mice by RT-qPCR using GAPDH as reference gene. Values correspond to the mean of dCT value±SD of three independent experiments, using four mice for each experimental condition and normalized to WT levels (*, P<0.05 relative to WT mice; #, P<0.05 relative to Vehicle-treated mdx mice). B) Detection of pSmad-2 (an intracellular TGF-β1 mediator) through indirect immunofluorescence analysis in cryosections of tibialis anterior muscle from Vehicle-treated and andrographolide-treated mdx mice. Bar corresponds to 200 μm.
(§2) Control or mdx (12 weeks old) male mice of C57BL/10 ScSn strain were studied. The animals were kept at room temperature with a […] night-day cycle and fed with pellets and water ad libitum. […]

The test system of test [2] is WT mice that overexpress CTGF. As to the kind of experiment: Macrophages (F4/80 positive cells) in tibialis anterior of WT mice overexpressing CTGF by adenovirus. The note with it: CTGF overexpressed by adenovirus. As to the method:
FIG. 3. Andrographolide modulates CTGF action in vivo. A) To augment the extent of muscle fibrosis, 3 months old mdx mice were subjected to an exercise protocol for 3 months. Along this period one group was treated with 1 mg/kg andrographolide or vehicle (i.p. injections 3 time per week, 4 animal per group). CTGF mRNA levels, a downstream TGF-β1 pro-fibrotic mediator) were determined in tibialis anterior muscle from Wild type (WT), Vehicle-Treated mdx and andrographolide-treated mdx mice by RT-qPCR using GAPDH as reference gene. Values correspond to the mean of dCT value±SD of three independent experiments, using four mice for each experimental condition and normalized to WT levels (*, P<0.05 relative to WT mice; #, P<0.05 relative to Vehicle-treated mdx mice). B) Detection of macrophages (F4/80 positive cells) through immunohistochemistry analysis in cryosections of tibialis anterior muscle from andrographolide-treated WT mice that overexpress CTGF by adenovirus (adv CTGF) infection.
For immunofluorescence, snap-frozen muscles in thawing isopentane were sectioned and cryosections (7 μm) were fixed in 4% paraformaldehyde, blocked 1 hour in 10% goat serum in PBS, incubated for one hour at room temperature with specific antibodies against fibronectin (Sigma, USA), collagen I (Chemicon, USA), F4/80 (abcam, USA), p-Smad2 (abcam, USA) and dystrophin (Santa Cruz, USA). […]

In test [3] the test system is TGF-β1. As to the kind of experiment: TGF-β1 mRNA levels in tibialis anterior muscle of exercised mdx mice, RT-qPCR. The note with it: 1 mg/kg i.p. 3 times per week for 3 months, vs vehicle. As to the method:
as §1, §2
(Quantitative PCR measures a nucleic acid by following its amplification.)

Test [4] deals with mdx mice. As to the kind of experiment: Collagen and fibronectin in tibialis anterior muscle of mdx mice, immunofluorescence and western blot. The settings on record: exercised mdx mice, 1 mg/kg i.p. 3 times per week for 3 months. How it is done: FIG. 5. Andrographolide reduced skeletal muscle fibrosis in mdx mice. To augment the extent of muscle fibrosis, 3 months old mdx mice were subjected to an exercise protocol for 3 months. Along this period one group was treated with 1 mg/kg andrographolide or vehicle (i.p. injections 3 time per week, 6 animal per group). A) Detection of collagen I and fibronectin by indirect immunofluorescence analysis in cryosections of tibialis anterior muscles from WT, Vehicle-treated mdx and andrographolide-treated mdx mice. Bar corresponds to 200 μm. B) fibronectin (FN) protein levels were detected by western blot analysis in extracts obtained from tibialis Anterior muscles from WT, Vehicle-treated mdx and andrographolide-treated mdx mice. […] GAPDH protein levels are shown as loading control; molecular weight markers are shown in kDa.
For immunoblot analyses, muscles were homogenized in 10 volume Tris-EDTA buffer with 1 mM PMSF as described previously (Morales et al., 2011). Briefly, proteins were determined in aliquots of muscle extracts using the bicinchoninic acid protein assay kit (Pierce, Ill.) using BSA as standard. Aliquots (50-100 μg) were subjected to SDS gel electrophoresis in 8% or 10% polyacrylamide gels, electrophoretically transferred onto PVDF membranes (Schleicher & Schuell) and probed with specific antibodies against fibronectin (Sigma-Aldrich, USA), collagen III (Rockland, USA and GAPDH (Millipore, USA), tubulin (Sigma-Aldrich, USA) and GAPDH (Sigma-Aldrich, USA). All immunoreactions were visualized by enhanced chemiluminescence kit (Pierce, USA). Densitometric analysis and quantification were performed using ImageJ software (NIH, USA) (Cabello-Verrugio et al., 2012).
Control or mdx (12 weeks old) male mice of C57BL/10 ScSn strain were studied. The animals were kept at room temperature with a […] night-day cycle and fed with pellets and water ad libitum. Experimental exercise was performed for running the mice in a treadmill for three times per week, 30 minutes each time at 12 m/min during 3 or 4 months (De Luca et al., 2005; De Luca et al., 2003). […]
A general note: A western blot detects proteins with antibodies after separation by electrophoresis.

Regarding `C=C1CC[C@@H]2[C@](C)(CO)[C@H](O)CC[C@@]2(C)[C@@H]1C/C=C1/C(=O)OC[C@H]1O` [andrographolide], the “number of positive nuclei for phosphorylated smad2 protein” value in test [1] is listed as “reduced”. Also, the “number of F4/80 (macrophage marker) positive cells” value in test [2] was “reduced”. Besides, the “expression of TGF-β1 (mRNA) in mdx mice” value in test [3] is “reduced”. Also, in test [4] (tibialis anterior), the “accumulation of collagen type I, immunofluorescence staining” value is “strongly decrease” and the “accumulation of fibronectin, immunofluorescence staining” value is given as “strongly decrease”. Moreover, the “fibronectin protein levels by western blot analysis” value in test [4] (tibialis anterior extracts) is “decreased”.

Values taken from US20140271573A1, “PHARMACO-CELLULAR THERAPEUTIC METHOD FOR THE TREATMENT OF MUSCULAR DYSTROPHIES” (PONTIFICIA UNIVERSIDAD CATÓLICA DE CHILE, priority 2013, published 2014).
